Measurements from patent publication EP2497475A1, “Treatment of laminitis with platelet aggregation inhibitors” (priority 2011, dated 2012).
Where two headings read alike, the source gives them in different places.

Test system: laminitis
Assay type: in vivo, horse

SMILES: CC(=O)Oc1cc2c(s1)CCN(C(C(=O)C1CC1)c1ccccc1F)C2 (stereo not drawn) [Prasugrel]
- Therapy progress (Example 1: 8 year old Shetty-gelding, acute attack, initial 20 mg Prasugrel + 1000 mg acetylsalicylic acid per 60 kg, then 10 mg + 500 mg per 60 kg twice a day, change in feeding, day 2): distinct pulsation in all 4 legs; the horse is more interested in its surrounding
- Therapy progress (Example 1: Shetty-gelding, Prasugrel in combination with acetylsalicylic acid, day 3): pulsation in the front legs less, in the back legs the same; horse comes when it is called
- 1. Follow-up examination (Example 1: Shetty-gelding, Prasugrel in combination with acetylsalicylic acid, day 4): day 4: pulsation in all 4 legs; horse walks with medium grade turning pain.
- 2. Follow-up examination: signs of laminitis (Example 1: Shetty-gelding, Prasugrel in combination with acetylsalicylic acid, day 6): no signs of laminitis
- 2. Follow-up examination: hoof ulcers (Example 1: Shetty-gelding, Prasugrel in combination with acetylsalicylic acid, day 8): no hoof ulcers observable
- 2. Follow-up examination: recurrence of laminitis (Example 1: Shetty-gelding, after stop of treatment on day 10, change of feeding kept): no more laminitis occurred
- Therapy progress (Example 2: 8 year old Shetty-mare, per 60 kg 10 mg Prasugrel + 500 mg acetylsalicylic acid twice a day, change in feeding, from day 3 on): light amelioration
- Therapy progress: pulsation (Example 2: Shetty-mare, Prasugrel in combination with acetylsalicylic acid, from day 7 on): no pulsation anymore sensible
- Therapy progress: pulsation (Example 2: Shetty-mare, Prasugrel in combination with acetylsalicylic acid, until day 5): pulsation clearly sensible
- Follow-up examination (Example 2: Shetty-mare, 1 month later (treatment stopped on day 14)): no pulsation; attitude without pathological findings
- Therapy progress (Example 3: 12 year old Pony-gelding, 10 mg Prasugrel + 500 mg acetylsalicylic acid per 60 kg twice a day, change in feeding, from day 2 on): light amelioration
- Therapy progress: movement (Example 3: Pony-gelding, Prasugrel in combination with acetylsalicylic acid, day 6): pony walks still restrained
- Therapy progress: movement (Example 3: Pony-gelding, Prasugrel in combination with acetylsalicylic acid, day 10): unlimited movement
- Therapy progress: pulsation (Example 3: Pony-gelding, Prasugrel in combination with acetylsalicylic acid, from day 4 on): no pulsation anymore sensible
- Therapy progress (Example 4: 8 year old Shetty-gelding, acute attack, 10 mg Prasugrel + 500 mg acetylsalicylic acid per 60 kg twice a day, change in feeding, day 3): pony standing in bran, but still heavy pain on all 4 legs
- Therapy progress (Example 4: Shetty-gelding, Prasugrel in combination with acetylsalicylic acid, day 5): clear amelioration of its attitude; less pulsation
- Therapy progress: pulsation (Example 4: Shetty-gelding, Prasugrel in combination with acetylsalicylic acid, from day 10 on): no pulsation sensible anymore
- Follow-up examination: outcome of pregnancy (in vivo): normal birth of a healthy foal
